Experiments:
HDACs = tested on: HDACs; parameters: method as in PMID 18061431, PMID 30052654; conditions: cited from earlier work
murine enteroids = test: HIF stabilization in differentiated murine enteroids; type: cell-based, mice; conditions: butyrate with or without 1 mM MCPA, 4 h
Experimental: Murine intestinal organoids/enteroids were isolated from wild-type C57BL/6 mice and cultured as previously described.[60] Briefly, colonic tissues were minced and then enzymatically digested and dissociated in GentleMACS tubes (Milteny Biotec). The homogenized tissues were then filtered through a 70 µm cell strainer and resuspended in Matrigel (Corning). Cells were cultured in L-WRN conditioned media until ready for differentiation into an epithelial lineage, in which the cells were incubated for 2 d in L-WRN media diluted 5-fold with DMEM:F-12 supplemented with 10% calf serum, 1% penicillin/streptomycin, and 1% GlutaMAX™. […] MCPA treatment also includes a 2 h pretreatment with MCPA before butyrate was added.
TRIzol® reagent (ThermoFisher Scientific) was used to isolate total RNA from T84 cells. […] Quantitative PCR analysis was performed using the Power SYBR™ Green master mix (Applied Biosystems) in a thermocycler. Fold change in expression of target mRNA relative to β-actin (ACTB) mRNA was calculated using the delta-delta Ct method. […]
T84 cells were rinsed with PBS and collected and lysed in 200 µL of radioimmunoprecipitation assay (RIPA, 50 mM Tris-HCl pH 8.0, 1 mM EDTA, 1% Triton X-100, […], 0.5% sodium deoxycholate, 150 mM NaCl) buffer with protease inhibitors on ice. […] Protein quantity of the supernatant was determined using the Bradford reagent. […]

T84 cells [1] = test: HIF stabilization in T84 cells (HIF-1α target mRNA, HIF-1α western blot); type: cell-based; conditions: 4 h
Experimental: (§1) T84 cells were cultured in 95% air with 5% CO2 at 37°C in standard media made of DMEM:F-12 supplemented with 10% calf serum, 1% penicillin/streptomycin, and 1% GlutaMAX™ (ThermoFisher Scientific) on 9.6 cm^2 6-well plates (ThermoFisher Scientific). Real-time oxygen sensing was done using the SensorDish Reader from Applikon Biotechnology as described previously with T84 cells plated on 0.33 cm^2 transwell inserts (Corning, 0.4 μm).[12] All MCPA treatments included a 2 h pretreatment with MCPA before treatment with butyrate.
TRIzol® reagent (ThermoFisher Scientific) was used to isolate total RNA from T84 cells. Mouse colon tissue samples were harvested into RNAlater™ (Invitrogen) and stored at 4°C for 48 h. Total RNA was isolated from the tissues using RNeasy Plus Mini Kit (Qiagen). cDNA was prepared using the iScript cDNA Synthesis Kit (Bio-Rad). Quantitative PCR analysis was performed using the Power SYBR™ Green master mix (Applied Biosystems) in a thermocycler. Fold change in expression of target mRNA relative to β-actin (ACTB) mRNA was calculated using the delta-delta Ct method. Primer sequences used are as follows: hBNIP3 – forward, 5′- […] −3′, reverse, 5′- […] −3′; hBNIP3L – forward, 5′- […] −3′, reverse, 5′- […] −3′; hGLUT1 – forward, 5′- […] −3′, reverse, 5′- […] −3′; hACTB – forward, 5′- […]-3′, reverse, 5′- […]-3′; mBnip3 – forward, 5′- […] −3′, reverse, 5′- […] −3′; mBnip3l – forward, 5′- […] −3′, reverse, 5′- […] −3′; mGlut1 – forward, 5′- […] −3′, reverse, 5′- […] −3′; and mActb – forward, 5′- […] −3′, reverse, 5′- […] −3′.
T84 cells were rinsed with PBS and collected and lysed in 200 µL of radioimmunoprecipitation assay (RIPA, 50 mM Tris-HCl pH 8.0, 1 mM EDTA, 1% Triton X-100, […], 0.5% sodium deoxycholate, 150 mM NaCl) buffer with protease inhibitors on ice. Mouse colon samples were harvested into 350 µL of RIPA buffer and flash frozen in liquid nitrogen. Samples were homogenized by sonication, and insoluble materials removed by centrifugation at 10,000 g for 5 min at 4°C. Protein quantity of the supernatant was determined using the Bradford reagent. […]

PHD2_181-402 = PHD2_181-402 (Homo sapiens, UniProt Q9GZT9); test: Microscale thermophoresis (MST) binding
T84 cells [2] = test: 2-OG levels in T84 cells; type: cell-based; conditions: 3 h
Experimental: as §1
Metabolites Extractions and HPLC-DAD: Cell and colon tissue metabolites were extracted and analyzed as previously described with minor variations.[61],[62] The metabolites were detected by absorption at wavelengths of 210, 254, and 280 nm, with their absorbance spectra and retention times verified by co-injection with authentic standards. Metabolites for HPLC-ESI MS analyses were resuspended in deionized water (pH 7.2).
HPLC-ESI MS: Analyses were performed on an Agilent Technologies 1260 Infinity II LC/MSD iQ with electrospray ionization (ESI) mass detection. Negative ion mass-to-charge ratios (m/z) were scanned from 50 to 500. The metabolite extracts were chromatographed using a Sepax Carbomix column (Pb-Np5:8%, 5 μm, non-porous, 4.6 × 300 mm) (mobile phase A: water; mobile phase B: acetonitrile; column temperature, 75°C). Chromatographic separation was performed using a combination of isocratic and gradient methods, including column washing and equilibration periods at the end (0 min: 100% A, 0.12 mL/min; 60 min: 100% A, 0.12 mL/min; 70 min: 70% A, 0.5 mL/min; 145 min: 70% A, 0.5 mL/min; 150 min: 100% A, 0.5 mL/min; 164 min, 100% A, 0.5 mL/min; 165 min, 100% A, 0.12 mL/min; 170 min, 100% A, 0.12 mL/min).

Sequence of PHD2_181-402 (Q9GZT9 181-402): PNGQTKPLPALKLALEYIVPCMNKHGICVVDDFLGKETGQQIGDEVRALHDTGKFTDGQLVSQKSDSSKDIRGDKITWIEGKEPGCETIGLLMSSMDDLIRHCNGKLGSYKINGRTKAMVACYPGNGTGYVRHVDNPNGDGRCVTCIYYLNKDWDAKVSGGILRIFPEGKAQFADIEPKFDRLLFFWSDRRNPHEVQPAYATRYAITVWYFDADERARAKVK

SMILES: CCCC(=O)O [Butyrate]
- HDAC inhibition (HDACs): most potently inhibits HDACs
- HIF-1α protein expression (murine enteroids): increased HIF-1α protein expression
- HIF-1α target gene expression (murine enteroids): induced expression of HIF-1α target genes
- HIF stabilization in the presence of MCPA (T84 cells [1]; 10 mM butyrate with 1 mM MCPA): still stabilized HIF
- HIF-1α protein levels (T84 cells [1]; 10 mM butyrate): increased
- HIF-1α target gene mRNA (BNIP3, BNIP3L, GLUT1) (T84 cells [1]; 10 mM butyrate): induction
- Kd (PHD2_181-402): 2000 ± 3000 µM
- binding to PHD2_181-402 in the presence of 2-OG (MST) (PHD2_181-402; 25 nM PHD2_181-402, with 500 nM 2-OG): no butyrate binding
- 2-OG levels compared to control (T84 cells [2]; 10 mM butyrate or 30 μM IOX2): significantly increased
- 2-OG levels in the presence of MCPA (T84 cells [2]; 10 mM butyrate with 1 mM MCPA): significantly increased

Source: PMC8253137, “Microbiota-derived butyrate is an endogenous HIF prolyl hydroxylase inhibitor” (Gut Microbes, 2021)
